The compounds below were run against T1, THRβ (Homo sapiens, UniProt P10828) (assay: Reporter gene (GAL4-THRβ-LBD / Dual-Glo luciferase) agonist activity assay in HEK293T cells). Details: ratio of reporter gene EC50 values THRα/THRβ.
T1 construct: expressed in transfected cells; host or cells: HEK293T
T1 sequence (P10828 217-461): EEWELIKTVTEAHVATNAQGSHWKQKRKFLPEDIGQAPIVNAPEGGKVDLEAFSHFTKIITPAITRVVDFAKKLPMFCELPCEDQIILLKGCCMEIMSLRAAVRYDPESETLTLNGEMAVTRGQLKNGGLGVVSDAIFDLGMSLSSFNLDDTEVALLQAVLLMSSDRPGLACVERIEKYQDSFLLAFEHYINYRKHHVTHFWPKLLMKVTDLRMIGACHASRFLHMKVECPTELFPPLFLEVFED
Assay type: cell-based
Excerpt: Experimental Example 1: Detection of THRα and THRβ Agonist Activities of Compounds Based on Reporter Gene Activity Assay Method
1.1 Construction and Preparation of Plasmids pGAL4-THR-LBD and pG5-Luc
The pGAL4-THRα-LBD and pGAL4-THRβ-LBD plasmids used in the reporter gene assay system were constructed by a conventional molecular cloning method comprising the following main steps: the cDNA sequences of THRα (NM_003250) and THRβ (NM_000461) corresponding to the amino acid sequences of THRα (163-407AA) and THRβ (217-461AA) were inserted into the BamHI and NotI enzyme digestion sites of the pGAL4 vector by the PCR technique respectively to obtain the pGAL4-THRα-LBD and pGAL4-THRβ-LBD plasmids; the pG5-Luc (#E249A) and pRL-TK (#E2241) plasmids were purchased from Promega; the plasmids were transfected into the E. coli DH5α by the CaCl2 method, and after further culture and amplification, the plasmids were purified by Plasmid Extraction Kits (TIANGEN, #D107) to obtain the corresponding plasmid DNAs.
1.2 Co-Transfection of Plasmids into HEK293T Cells and Treatment with Compounds
The HEK293T cells were inoculated into a 96-well plate at a density of 1×10^4/well the day before plasmid transfection. Cell transfection was conducted according to the instructions of the transfection reagent FuGENE® HD (Promega, #E2311). The main steps were as follows: taking one well as an example here, the plasmids pGAL4-THRα-LBD or pGAL4-THRβ-LBD, pG5-Luc, and pRL-TK were added in the proportions of 20 ng, 50 ng, and 5 ng to 10 μL of Opti-MEM™ I medium (Gibco, #11058021) and mixed well; subsequently, 0.25 uL of FuGENE® HD was added, mixed well, and then left at room temperature for 5 min; afterwards, 10 μL of the mixture was added to the cell wells containing 100 μL of culture medium. After cell co-transfection for 6 h, the compound was diluted in a 3-fold gradient with dimethyl sulfoxide at the highest concentration of 1 uM. The compound was added to the cell culture medium at a total of 10 concentrations for treatment for 24 h. There were a total of two duplicate wells for each concentration. Triiodothyronine (T3) was used as the positive control.
1.3 Dual-Glo Luciferase Assay
After the cells were treated with the compound for 24 h, the cells were assayed according to the instructions of Dual-Glo® Luciferase Assay System (Promega, #E2940). The main steps were as follows: 50 μL of culture medium was aspirated from each well and discarded, and then 50 μL of Dual-Glo® Luciferase reagent was added and oscillated at room temperature for 10 min; 80 μL of lysis reaction solution was measured into a white opaque optiPlate-96-well plate, and the luminescence signal value (Firefly-Luc) of the Firefly luciferase was detected using an MD i3x multi-mode microplate reader; 40 μL of Dual-Glo® Stop & Glo® reagent was then added, and oscillated at room temperature for 10 min; the luminescence signal value (Renilla-Luc) of the Renilla luciferase was then detected using an MD i3x multi-mode microplate reader. The Firefly-Luc/Renilla-Luc ratio was used as the activation activity of the compound against THR, and the ratio in the solvent DMSO group was used for normalization; the dose-response curve was fitted with four parameters using the GraphPad Prism6.0 software, and the EC50 value was calculated.
For `CNC(=O)c1cscc1OCc1c(Br)cc(-n2nc(C(F)F)c(=O)[nH]c2=O)cc1Br` [Compound 91], the “Selectivity (THRα/THRβ)” value was “††† (†††: 20 ≥ THRα/β > 10;)”.
With `CNC(=O)c1cscc1OCc1c(Cl)cc(-n2nc(C(F)F)c(=O)[nH]c2=O)cc1Cl` [Compound 62] the “Selectivity (THRα/THRβ)” value was “†† (††: 10 ≥ THRα/β > 5;)”.
With `NC(=O)c1cc(C2CCCC2)ccc1OCc1c(Cl)cc(-n2ncc(=O)[nH]c2=O)cc1Cl` [Compound 102] the “Selectivity (THRα/THRβ)” value was “†† (††: 10 ≥ THRα/β > 5;)”.
In the case of `Cc1ccc(OCc2c(Cl)cc(-n3ncc(=O)[nH]c3=O)cc2Cl)c(C(N)=O)c1` [Compound 68], the “Selectivity (THRα/THRβ)” value is reported as “† (†: 5 ≥ THRα/β;)”.
In the case of `CNC(=O)c1ccccc1OCc1c(Cl)cc(-n2nc(C(F)F)c(=O)[nH]c2=O)cc1Br` [Compound 105], the “Selectivity (THRα/THRβ)” value is reported as “† (†: 5 ≥ THRα/β;)”.
In the case of `Cc1ccc(OCc2c(Br)cc(-n3nc(C(F)F)c(=O)[nH]c3=O)cc2Br)c(C(N)=O)c1` [Compound 87], the “Selectivity (THRα/THRβ)” value is reported as “† (†: 5 ≥ THRα/β;)”.
For `CNC(=O)c1sccc1OCc1c(Br)cc(-n2nc(C(F)F)c(=O)[nH]c2=O)cc1Br` [Compound 90], the “Selectivity (THRα/THRβ)” value was “††† (†††: 20 ≥ THRα/β > 10;)”.
For `CNC(=O)c1sccc1OCc1c(Cl)cc(-n2ncc(=O)[nH]c2=O)cc1Cl` [Compound 47], the “Selectivity (THRα/THRβ)” value was “† (†: 5 ≥ THRα/β;)”.
With `CNC(=O)c1ccccc1OCc1c(Cl)cc(-n2nc(C)c(=O)[nH]c2=O)cc1Cl` [Compound 51] the “Selectivity (THRα/THRβ)” value was “† (†: 5 ≥ THRα/β;)”.
In the case of `CNC(=O)c1ccccc1OCc1c(Cl)cc(-n2nc(C(F)(F)F)c(=O)[nH]c2=O)cc1Cl` [Compound 52], the “Selectivity (THRα/THRβ)” value is reported as “† (†: 5 ≥ THRα/β;)”.
`CNC(=O)c1ccccc1OCc1c(Cl)cc(-c2nn(C)c(=O)[nH]c2=O)cc1Cl` [Compound 59] was tested, and the “Selectivity (THRα/THRβ)” value was “† (†: 5 ≥ THRα/β;)”.
For `NC(=O)c1cc(C2=CCCC2)ccc1OCc1c(Cl)cc(-n2ncc(=O)[nH]c2=O)cc1Cl` [Compound 101], the “Selectivity (THRα/THRβ)” value was “† (†: 5 ≥ THRα/β;)”.
`CCNC(=O)c1ccccc1OCc1c(Cl)cc(-n2ncc(=O)[nH]c2=O)cc1Cl` [Compound 43] was tested, and the “Selectivity (THRα/THRβ)” value was “† (†: 5 ≥ THRα/β;)”.
In the case of `NC(=O)c1cc(Br)ccc1OCc1c(Cl)cc(-n2ncc(=O)[nH]c2=O)cc1Cl` [Compound 64], the “Selectivity (THRα/THRβ)” value is reported as “† (†: 5 ≥ THRα/β;)”.
In the case of `CNC(=O)c1sccc1OCc1c(Cl)cc(-n2nc(C(F)F)c(=O)[nH]c2=O)cc1Cl` [Compound 63], the “Selectivity (THRα/THRβ)” value is reported as “† (†: 5 ≥ THRα/β;)”.
With `CNC(=O)c1ccccc1OCc1c(Br)cc(-n2nc(C(F)F)c(=O)[nH]c2=O)cc1Br` [Compound 56] the “Selectivity (THRα/THRβ)” value was “†† (††: 10 ≥ THRα/β > 5;)”.
In the case of `CNC(=O)c1ccccc1OCc1c(C)cc(-n2ncc(=O)[nH]c2=O)cc1Cl` [Compound 61], the “Selectivity (THRα/THRβ)” value is reported as “† (†: 5 ≥ THRα/β;)”.
`CNC(=O)c1ccc(OCc2c(Cl)cc(-n3ncc(=O)[nH]c3=O)cc2Cl)cc1` [Compound 76] was tested, and the “Selectivity (THRα/THRβ)” value was “† (†: 5 ≥ THRα/β;)”.
For `CNC(=O)c1ccccc1OCc1c(Cl)cc(-n2nc(CF)c(=O)[nH]c2=O)cc1Cl` [Compound 93], the “Selectivity (THRα/THRβ)” value was “† (†: 5 ≥ THRα/β;)”.
In the case of `CNC(=O)c1cc(C)ccc1OCc1c(Br)cc(-n2ncc(=O)[nH]c2=O)cc1Br` [Compound 85], the “Selectivity (THRα/THRβ)” value is reported as “†††† (††††: 100 ≥ THRα/β > 20)”.
In the case of `[2H]C([2H])([2H])NC(=O)c1ccccc1OCc1c(Cl)cc(-n2nc(C(F)F)c(=O)[nH]c2=O)cc1Cl` [Compound 104], the “Selectivity (THRα/THRβ)” value is reported as “†† (††: 10 ≥ THRα/β > 5;)”.
`NC(=O)c1cc(-n2cccc2)ccc1OCc1c(Cl)cc(-n2ncc(=O)[nH]c2=O)cc1Cl` [Compound 70] was tested, and the “Selectivity (THRα/THRβ)” value was “†† (††: 10 ≥ THRα/β > 5;)”.
For `CNC(=O)c1cscc1OCc1c(Cl)cc(-n2ncc(=O)[nH]c2=O)cc1Cl` [Compound 46], the “Selectivity (THRα/THRβ)” value was “† (†: 5 ≥ THRα/β;)”.
For `CNC(=O)c1ccccc1OCc1c(Cl)cc(-c2nn(C(F)F)c(=O)[nH]c2=O)cc1Cl` [Compound 60], the “Selectivity (THRα/THRβ)” value was “† (†: 5 ≥ THRα/β;)”.
In the case of `NC(=O)c1cc(C2CCCCC2)ccc1OCc1c(Cl)cc(-n2ncc(=O)[nH]c2=O)cc1Cl` [Compound 100], the “Selectivity (THRα/THRβ)” value is reported as “†††† (††††: 100 ≥ THRα/β > 20)”.
In the case of `NC(=O)c1ccccc1OCc1c(Br)cc(-n2nc(C(F)F)c(=O)[nH]c2=O)cc1Br` [Compound 57], the “Selectivity (THRα/THRβ)” value is reported as “† (†: 5 ≥ THRα/β;)”.
`CNC(=O)c1cc(C)ccc1OCc1c(Br)cc(-n2nc(C(F)F)c(=O)[nH]c2=O)cc1Br` [Compound 89] was tested, and the “Selectivity (THRα/THRβ)” value was “† (†: 5 ≥ THRα/β;)”.
`CNC(=O)c1ccccc1OCc1c(Br)cc(-n2ncc(=O)[nH]c2=O)cc1Br` [Compound 39] was tested, and the “Selectivity (THRα/THRβ)” value was “† (†: 5 ≥ THRα/β;)”.
`Cc1ccc(OCc2c(Cl)cc(-n3nc(C(F)F)c(=O)[nH]c3=O)cc2Cl)c(C(N)=O)c1` [Compound 86] was tested, and the “Selectivity (THRα/THRβ)” value was “†† (††: 10 ≥ THRα/β > 5;)”.
For `CNC(=O)c1cc(C)ccc1OCc1c(Cl)cc(-n2nc(C(F)F)c(=O)[nH]c2=O)cc1Cl` [Compound 88], the “Selectivity (THRα/THRβ)” value was “† (†: 5 ≥ THRα/β;)”.
For `Cc1ccc(OCc2c(Br)cc(-n3ncc(=O)[nH]c3=O)cc2Br)c(C(N)=O)c1` [Compound 83], the “Selectivity (THRα/THRβ)” value was “†††† (††††: 100 ≥ THRα/β > 20)”.
In the case of `NC(=O)c1cc(C2=CCCCC2)ccc1OCc1c(Cl)cc(-n2ncc(=O)[nH]c2=O)cc1Cl` [Compound 99], the “Selectivity (THRα/THRβ)” value is reported as “†††† (††††: 100 ≥ THRα/β > 20)”.
`NC(=O)c1cc(Cl)ccc1OCc1c(Cl)cc(-n2ncc(=O)[nH]c2=O)cc1Cl` [Compound 32] was tested, and the “Selectivity (THRα/THRβ)” value was “† (†: 5 ≥ THRα/β;)”.
In the case of `CNC(=O)c1cc(C)ccc1OCc1c(Cl)cc(-n2ncc(=O)[nH]c2=O)cc1Cl` [Compound 84], the “Selectivity (THRα/THRβ)” value is reported as “† (†: 5 ≥ THRα/β;)”.
In the case of `NC(=O)c1cc(F)ccc1OCc1c(Cl)cc(-n2ncc(=O)[nH]c2=O)cc1Cl` [Compound 37], the “Selectivity (THRα/THRβ)” value is reported as “† (†: 5 ≥ THRα/β;)”.
`[2H]C([2H])(Oc1ccccc1C(=O)NC)c1c(Cl)cc(-n2nc(C(F)F)c(=O)[nH]c2=O)cc1Cl` [Compound 103] was tested, and the “Selectivity (THRα/THRβ)” value was “† (†: 5 ≥ THRα/β;)”.
For `NC(=O)c1cc(C2CC2)ccc1OCc1c(Cl)cc(-n2ncc(=O)[nH]c2=O)cc1Cl` [Compound 82], the “Selectivity (THRα/THRβ)” value was “†† (††: 10 ≥ THRα/β > 5;)”.

From patent publication US20260048060A1, “POLYCYCLIC THYROID HORMONE b RECEPTOR AGONIST AND USE THEREOF” (CASCADE PHARMACEUTICALS, INC., priority 2022, published 2026)
